Assay results taken from patent US20240350579A1 (priority 2020, published 2024).

Columns and labels:
[1] = Net peptide charge and isoelectric point; type: physicochemical; conditions: pH 7
From the text: The peptide may be purified. For example, the peptide may be lyophilized. […] Other peptides are within the scope of the disclosure.
Exemplary peptides having a charge of +5 to +9 include […](d)[…], […](d)[…], and […](d)[…]. In other embodiments, the purified peptide may be substantially neutral. […] Net charge may be selected by peptide design. Design of electrostatic charge in the peptide hydrogel may allow control of charge interaction with cell membrane and proteins.

P. aeruginosa = assay: Antibacterial assay of PEPXR hydrogels; type: cell-based
From the text: (§1) Thus, the peptide hydrogels described herein may generally comprise a high content of positively charged arginine (R) amino acids.
The peptide hydrogel is believed to directly lyse bacterial membranes indiscriminately. […] The mechanism additionally makes it more difficult for the treated microorganisms to gain antibiotic resistance.

S. aureus = assay: Antibacterial assay of PEPXR hydrogels; type: cell-based
From the text: as §1

E. coli = assay: Antibacterial assay of PEPXR hydrogels; type: cell-based
From the text: as §1

Row | Substance | net charge [1] | antimicrobial activity (in words) (P. aeruginosa) | antimicrobial activity (in words) (S. aureus) | antimicrobial activity (in words) (E. coli)
1 | VEVSVSVEV(d)PPTEVSVEVEV | net negative charge |  |  | 
2 | VKVRVRVRVPPTRVRVRVKV [PEP6R] |  | potent antimicrobial activity | potent antimicrobial activity | potent antimicrobial activity
